Source: ChEMBL document CHEMBL1909046, “DrugMatrix in vitro pharmacology data”

Experiments:
[1] = biological target: T1, Alpha-2C adrenergic receptor (Homo sapiens, UniProt P18825); test: DRUGMATRIX: Adrenergic Alpha-2C radioligand binding (ligand: [3H] MK-912); format: cell membranes, Sf9, Membrane; settings: sf9
T1 sequence (P18825 whole entry): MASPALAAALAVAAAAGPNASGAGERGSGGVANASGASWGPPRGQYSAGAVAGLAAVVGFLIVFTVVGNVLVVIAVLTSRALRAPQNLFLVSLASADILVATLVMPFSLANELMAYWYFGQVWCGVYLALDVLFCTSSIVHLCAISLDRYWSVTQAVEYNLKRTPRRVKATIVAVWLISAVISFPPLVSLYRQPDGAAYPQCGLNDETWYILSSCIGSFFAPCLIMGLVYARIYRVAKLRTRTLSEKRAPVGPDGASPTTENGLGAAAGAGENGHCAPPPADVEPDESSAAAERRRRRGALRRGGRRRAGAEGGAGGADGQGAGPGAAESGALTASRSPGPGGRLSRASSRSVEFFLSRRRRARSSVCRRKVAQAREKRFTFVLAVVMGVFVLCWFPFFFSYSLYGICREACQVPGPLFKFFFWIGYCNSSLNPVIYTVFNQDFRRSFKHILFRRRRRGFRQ

Thromboxane-A synthase = biological target: T2, Thromboxane-A synthase (Homo sapiens, UniProt P24557); test: biochemical; format: tissue-based, Platelet;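 note: enzyme inhibition assay with PGH2 supplied as substrate; in other assays of this panel Not Active means under 50% inhibition at 10 µM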
T2 sequence (P24557 whole entry): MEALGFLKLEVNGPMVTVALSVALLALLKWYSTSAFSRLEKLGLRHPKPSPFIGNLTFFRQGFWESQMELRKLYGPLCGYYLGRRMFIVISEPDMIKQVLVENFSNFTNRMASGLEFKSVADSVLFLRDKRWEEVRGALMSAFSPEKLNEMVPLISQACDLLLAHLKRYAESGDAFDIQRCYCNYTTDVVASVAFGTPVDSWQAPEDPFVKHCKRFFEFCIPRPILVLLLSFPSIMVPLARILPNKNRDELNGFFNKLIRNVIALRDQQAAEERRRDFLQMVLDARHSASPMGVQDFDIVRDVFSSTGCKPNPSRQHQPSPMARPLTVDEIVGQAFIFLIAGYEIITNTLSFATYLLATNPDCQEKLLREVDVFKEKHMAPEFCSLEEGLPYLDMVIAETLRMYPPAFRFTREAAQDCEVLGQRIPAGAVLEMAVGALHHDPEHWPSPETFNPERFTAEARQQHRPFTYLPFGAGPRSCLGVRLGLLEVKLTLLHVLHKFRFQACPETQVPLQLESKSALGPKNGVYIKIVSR

[2] = biological target: T3, Vasoactive intestinal polypeptide receptor 1 (Homo sapiens, UniProt P32241); format: cell membranes, Membrane; settings: ht-29; note: in other assays of this panel Not Active means under 50% inhibition at 10 µM
T3 sequence (P32241 whole entry): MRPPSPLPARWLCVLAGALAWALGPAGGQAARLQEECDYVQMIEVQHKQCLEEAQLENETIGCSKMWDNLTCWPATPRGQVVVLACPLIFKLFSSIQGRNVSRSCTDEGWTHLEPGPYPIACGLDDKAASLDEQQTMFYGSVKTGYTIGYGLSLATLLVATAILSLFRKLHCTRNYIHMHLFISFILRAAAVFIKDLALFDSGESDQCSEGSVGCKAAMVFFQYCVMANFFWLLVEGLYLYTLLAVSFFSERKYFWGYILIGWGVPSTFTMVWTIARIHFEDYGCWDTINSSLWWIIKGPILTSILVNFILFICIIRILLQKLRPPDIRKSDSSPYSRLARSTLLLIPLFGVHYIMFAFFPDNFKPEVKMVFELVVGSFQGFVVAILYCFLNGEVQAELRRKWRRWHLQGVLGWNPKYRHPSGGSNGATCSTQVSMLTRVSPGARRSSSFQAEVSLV

[3] = DRUGMATRIX: GABAA, Flunitrazepam, Central radioligand binding (ligand: [3H] Flunitrazepam); format: cell membranes, Rattus norvegicus, Wistar, Brain, Membrane; settings: Not Active = under 50% inhibition at 10 µM
Melanocortin receptor 5 = Melanocortin receptor 5 (Homo sapiens, UniProt P33032); format: cell membranes, HEK293, Membrane; settings: hek293; note: in other assays of this panel Not Active means under 50% inhibition at 10 µM
Chain of Melanocortin receptor 5 (P33032 whole entry): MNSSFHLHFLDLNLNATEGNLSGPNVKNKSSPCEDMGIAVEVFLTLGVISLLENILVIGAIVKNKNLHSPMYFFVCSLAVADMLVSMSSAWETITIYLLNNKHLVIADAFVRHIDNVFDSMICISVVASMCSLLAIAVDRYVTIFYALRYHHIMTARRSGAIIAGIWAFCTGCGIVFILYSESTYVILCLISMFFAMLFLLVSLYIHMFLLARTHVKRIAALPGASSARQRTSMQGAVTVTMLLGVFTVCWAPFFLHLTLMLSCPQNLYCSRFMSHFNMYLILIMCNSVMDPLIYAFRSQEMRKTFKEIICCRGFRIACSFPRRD

[4] = biological target: Platelet-activating factor receptor (Homo sapiens, UniProt P25105); format: tissue-based; note: in other assays of this panel Not Active means under 50% inhibition at 10 µM
Chain of Platelet-activating factor receptor (P25105 whole entry): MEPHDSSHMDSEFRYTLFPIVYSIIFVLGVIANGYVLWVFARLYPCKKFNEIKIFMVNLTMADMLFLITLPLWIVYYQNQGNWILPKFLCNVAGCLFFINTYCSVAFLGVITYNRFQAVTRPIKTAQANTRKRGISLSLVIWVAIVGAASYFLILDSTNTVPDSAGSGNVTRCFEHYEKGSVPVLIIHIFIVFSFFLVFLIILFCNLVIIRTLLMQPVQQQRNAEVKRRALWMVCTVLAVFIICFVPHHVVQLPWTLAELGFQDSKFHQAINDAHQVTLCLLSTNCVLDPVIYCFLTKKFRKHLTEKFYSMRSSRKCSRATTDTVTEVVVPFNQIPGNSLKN

NC[C@H]1CC[C@H](C(=O)O)CC1 [TRANEXAMIC ACID]
Not Active: IC50 [1] | IC50 (Thromboxane-A synthase; platelet) | IC50 [2] | IC50 [3] | Ki [3] | IC50 (Melanocortin receptor 5) | IC50 [4]

CC1(C)O[C@@H]2C[C@H]3[C@@H]4CCC5=CC(=O)C=C[C@]5(C)[C@@]4(F)[C@@H](O)C[C@]3(C)[C@]2(C(=O)CO)O1 [TRIAMCINOLONE ACETONIDE]
Not Active: IC50 [1] | IC50 (Thromboxane-A synthase; platelet) | IC50 [2] | IC50 [3] | Ki [3] | IC50 (Melanocortin receptor 5) | IC50 [4]

NS(=O)(=O)c1cc2c(cc1Cl)NC(C(Cl)Cl)NS2(=O)=O (stereo not drawn) [TRICHLORMETHIAZIDE]
Not Active: IC50 [1] | IC50 (Thromboxane-A synthase; platelet) | IC50 [2] | IC50 [3] | Ki [3] | IC50 (Melanocortin receptor 5) | IC50 [4]

Cc1c(C)c2c(c(C)c1O)CCC(C)(COc1ccc(CC3SC(=O)NC3=O)cc1)O2 (stereo not drawn) [TROGLITAZONE]
2.97 µM: IC50 (Thromboxane-A synthase; read-out: IC50)
Not Active: IC50 [1] | IC50 [2] | IC50 [3] | Ki [3] | IC50 (Melanocortin receptor 5) | IC50 [4]

N[C@@H]1[C@H]2CN(c3nc4c(cc3F)c(=O)c(C(=O)O)cn4-c3ccc(F)cc3F)C[C@@H]12 [TROVAFLOXACIN]
4.02 µM: IC50 (Thromboxane-A synthase; read-out: IC50)
Not Active: IC50 [1] | IC50 [2] | IC50 [3] | Ki [3] | IC50 (Melanocortin receptor 5) | IC50 [4]

N#CC(C#N)=Cc1ccc(O)c(O)c1 [TYRPHOSTIN 23]
Not Active: IC50 [1] | IC50 (Thromboxane-A synthase; platelet) | IC50 [2] | IC50 [3] | Ki [3] | IC50 (Melanocortin receptor 5) | IC50 [4]

CC[C@]1(O)C[C@H]2CN(CCc3c([nH]c4ccccc34)[C@@](C(=O)OC)(c3cc4c(cc3OC)N(C=O)[C@H]3[C@@](O)(C(=O)OC)[C@H](OC(C)=O)[C@]5(CC)C=CCN6CC[C@]43[C@@H]65)C2)C1 [VINCRISTINE]
Not Active: IC50 [1] | IC50 (Thromboxane-A synthase; platelet) | IC50 [2] | IC50 [3] | Ki [3] | IC50 (Melanocortin receptor 5) | IC50 [4]

CCCOc1ccccc1-c1nc2nn[nH]c2c(=O)[nH]1 [ZAPRINAST]
Not Active: IC50 [1] | IC50 (Thromboxane-A synthase; platelet) | IC50 [2] | IC50 [3] | Ki [3] | IC50 (Melanocortin receptor 5) | IC50 [4]

SODIUM NITROPRUSSIDE
Not Active: IC50 [1] | Ki [1] | IC50 (Thromboxane-A synthase; platelet) | Ki (Thromboxane-A synthase; platelet) | IC50 [2] | Ki [2] | IC50 [3] | Ki [3] | IC50 (Melanocortin receptor 5) | Ki (Melanocortin receptor 5) | IC50 [4] | Ki [4]
